One compound from patent US8101766B2, “Crystalline form of a biphenyl compound” (Theravance, Inc., priority 2004, dated 2012) can be followed below.

The target in experiment [1] is T1, human M3 muscarinic receptor (Homo sapiens, UniProt P20309).
T1 construct: expressed in transfected cells
Briefly: Radioligand binding assay for muscarinic receptors (hM3). To be noted: [3H]-NMS displacement, CHO cell membranes. How it is done:
Cell Culture and Membrane Preparation from Cells Expressing Human M1, M2, M3 and M4 Muscarinic Receptors
CHO cell lines stably expressing cloned human hM1, hM2, hM3 and hM4 muscarinic receptor subtypes, respectively, were grown to near confluency in HAM's F-12 media supplemented with 10% FBS and 250 μg/mL Geneticin. The cells were grown in a 5% CO2, 37° C. incubator and lifted with 2 mM EDTA in dPBS. Cells were collected by 5 minute centrifugation at 650×g, and cell pellets were either stored frozen at −80° C. or membranes were prepared immediately for use. […] The protein concentration of the membrane suspension was determined by the method described in Lowry et al., 1951, Journal of Biochemistry, 193, 265. […]
Radioligand binding assays for cloned human muscarinic receptors were performed in 96-well microtiter plates in a total assay volume of 100 μL. […] Filter plates were rinsed three times with wash buffer (10 mM HEPES) to remove unbound radioactivity. […] The plates were then counted in a PerkinElmer Topcount liquid scintillation counter (PerkinElmer Inc., Wellesley, Mass.). Binding data were analyzed by nonlinear regression analysis with the GraphPad Prism Software package (GraphPad Software, Inc., San Diego, Calif.) using the one-site competition model. […]

The target in experiment [2] is T2, hM3 receptor (Homo sapiens, UniProt P20309).
T2 construct: expressed in transfected cells
Briefly: Blockade of agonist-mediated calcium release via FLIPR assay (hM3). The following applies: CHO cells stably expressing hM3. The class given is cell-based. The source says:
B. Blockade of Agonist-Mediated Calcium Release Via FLIPR Assays
Muscarinic receptor subtypes (M1, M3 and M5 receptors), which couple to Gq proteins, activate the phospholipase C (PLC) pathway upon agonist binding to the receptor. As a result, activated PLC hydrolyzes phosphatyl inositol diphosphate (PIP2) to diacylglycerol (DAG) and phosphatidyl-1,4,5-triphosphate (IP3), which in turn generates calcium release from intracellular stores, i.e., endoplasmic and sarcoplasmic reticulum. […] This fluorescence event is measured in real time by the FLIPR, which detects the change in fluorescence from a monolayer of cells cloned with human M1 and M3, and chimpanzee M5 receptors. Antagonist potency can be determined by the ability of antagonists to inhibit agonist-mediated increases in intracellular calcium. […]
To determine antagonist potency, the dose-dependent stimulation of intracellular Ca^2+ release for oxotremorine was first determined so that antagonist potency can later be measured against oxotremorine stimulation at an EC90 concentration. […]
The parameters used for the FLIPR were: exposure length of 0.4 seconds, laser strength of 0.5 watts, excitation wavelength of 488 nm, and emission wavelength of 550 nm. Baseline was determined by measuring the change in fluorescence for 10 seconds prior to addition of agonist. […]

A value given as a limit tells only on which side of the number the result lay.

T2 sequence (P20309 whole entry): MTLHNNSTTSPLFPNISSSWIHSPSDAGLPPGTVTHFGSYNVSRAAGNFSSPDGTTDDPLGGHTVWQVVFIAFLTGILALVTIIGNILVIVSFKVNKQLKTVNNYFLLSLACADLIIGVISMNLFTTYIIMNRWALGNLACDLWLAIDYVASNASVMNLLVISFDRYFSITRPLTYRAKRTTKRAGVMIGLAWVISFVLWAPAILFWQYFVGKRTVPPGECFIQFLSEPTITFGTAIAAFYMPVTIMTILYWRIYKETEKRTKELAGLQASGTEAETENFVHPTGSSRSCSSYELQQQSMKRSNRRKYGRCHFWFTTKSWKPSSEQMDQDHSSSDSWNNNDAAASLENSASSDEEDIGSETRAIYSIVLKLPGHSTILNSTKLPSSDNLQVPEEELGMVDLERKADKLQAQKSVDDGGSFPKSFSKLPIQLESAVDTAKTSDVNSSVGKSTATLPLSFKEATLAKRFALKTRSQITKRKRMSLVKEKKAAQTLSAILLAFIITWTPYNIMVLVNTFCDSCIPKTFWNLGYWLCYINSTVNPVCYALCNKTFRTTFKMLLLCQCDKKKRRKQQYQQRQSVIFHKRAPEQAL
T1 sequence (P20309 whole entry): as above

Consider `COc1cc(NC(=O)CCN2CCC(OC(=O)Nc3ccccc3-c3ccccc3)CC2)c(Cl)cc1CNC[C@H](O)c1ccc(O)c2[nH]c(=O)ccc12` [compound of formula I, biphenyl-2-ylcarbamic acid 1-[2-(2-chloro-4-{[(R)-2-hydroxy-2-(8-hydroxy-2-oxo-1,2-dihydroquinolin-5-yl)ethylamino]methyl}-5-methoxyphenylcarbamoyl)ethyl]piperidin-4-yl ester], for which the Ki in experiment [1] and in experiment [2] was less than 10 nM in each case.

For orientation: Ki means a measure of affinity in units of concentration, obtained from inhibition or displacement.
